Assay [1] concerns the target human RIPK1 (Homo sapiens (Human), UniProt Q13546). Put plainly: KINOMEscan binding assay, human RIPK1. The note with it: equilibrium dissociation constant. The essentials: (§1)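 Kd values come from dose-response fits to the Hill equation (Hill slope −1, Levenberg–Marquardt least squares). Compound competed with bead-bound ligand for tagged kinase, and remaining kinase was measured by qPCR after elution. Dilution series: 11 points, 3-fold, 1% DMSO final, top 30,000 nM in most runs.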

For assay [2], the target named is human MLKL (full length) (Homo sapiens (Human), UniProt Q8NB16). Put plainly: KINOMEscan binding assay, human MLKL (full length). The note with it: equilibrium dissociation constant. The method, boiled down: as §1
Chain of human MLKL (full length) (Q8NB16 whole entry): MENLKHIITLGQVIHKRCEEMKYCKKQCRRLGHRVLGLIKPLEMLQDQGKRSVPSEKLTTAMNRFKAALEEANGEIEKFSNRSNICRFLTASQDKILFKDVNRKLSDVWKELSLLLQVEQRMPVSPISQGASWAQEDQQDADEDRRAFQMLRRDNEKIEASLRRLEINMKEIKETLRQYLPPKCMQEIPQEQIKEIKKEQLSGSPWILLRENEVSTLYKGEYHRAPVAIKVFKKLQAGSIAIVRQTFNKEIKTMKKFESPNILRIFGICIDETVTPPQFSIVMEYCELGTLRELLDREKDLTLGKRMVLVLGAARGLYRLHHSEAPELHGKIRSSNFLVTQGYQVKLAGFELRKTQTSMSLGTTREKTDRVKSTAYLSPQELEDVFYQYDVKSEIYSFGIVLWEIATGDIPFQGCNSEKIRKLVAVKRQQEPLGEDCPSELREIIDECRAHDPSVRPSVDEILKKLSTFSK
Assay [3] has as its target human RIPK3 (Homo sapiens (Human), UniProt Q9Y572). Put plainly: KINOMEscan binding assay, human RIPK3. Conditions: equilibrium dissociation constant. The method, boiled down:
as §1

Assay [4] has as its system Immortalised Mouse Dermal Fibroblasts (MDFs). Put plainly: Inhibition of TSI induced necroptosis in mouse dermal fibroblasts (CellTitre-Glo). Conditions: Mus musculus, Fibroblast, 3 h, MDF cells, TSI cocktail (TNF, Smac mimetic, IDN-6556), read-out: Inhibition of TSI-induced necroptosis (IC50 cell-based assay) in MDF. The procedure: Cellular Assay: Screening Compounds for Inhibition of TSI Induced Necroptosis in, 384 well plate format. • Cell Line ID: Immortalised Mouse Dermal Fibroblasts (MDFs). • Cell Concentration (cells/well): Final cell density is 2200 cells per well. • Cell growth medium: DMEM medium+7.4% Fetal Bovine Serum (FBS). Cells are cultured in Corning 150 cm^2 tissue culture flasks with vented caps at 37° C./10% CO2. • Incubation: Plates were incubated for 30 minutes following addition of compounds and then 3 hours incubation with death stimuli (TSI cocktail) at 37° C./10% CO2 in a humidified incubator. • Compound concentration: 36 μM starting concentration, 1:3 dilution, 10 point • DMSO final concentration (% v/v): 0.3%. Compounds in TSI Cocktail (T: TNF; S: Smac Mimetic; I: IDN-6556) and their Final Concentrations: • rhTNF (100 ng/ml) • Compound A (500 nM)—Smac mimetic, Tetralogic and SYNthesis med chem • IDN-6556 (10 μM)—Selleckchem (S7775)
The cellular assay was carried out according to the following steps: • 1. Each well was prepared by sequential addition of: • a. 40 μL of cell suspension (5.5×10^4 cells/mL) was added to each well to provide a final cell concentration of 2,200 cells per well. • b. After 24 hours, DMSO (control; columns 1-2 and 23-24) or compound in DMSO—addition was performed using acoustic transfer of nL volumes of stock compound to give final test concentrations of 36, 12, 4, 1.3, 0.44, 0.148, 0.049, 0.016, 0.005 and 0.002 μM. All wells were backfilled with DMSO to a final total volume in the well of 100 nL. • c. Following compound/DMSO addition in step (b), Plates were incubated for 30 minutes at 37° C./10% CO2 in a humidified incubator and then 10 μL of 5×TSI cocktail (except to positive controls; columns 2 and 24) was added to each well. • 2. After 3 hours, plate was removed from the 37° C. incubator and equilibrated to room temperature for 15 minutes. • 3. 15 μL of room temperature CellTitre-Glo2™ (Promega™) was added to each well. • 4. Shook plates for 2 minutes (˜600 rpm) and incubated at room temperature for 15 minutes to allow signal to stabilise. • 5. Read luminescence readout on a plate reader.
Percent viability was calculated for each compound according to equation (2): […]
10 point titration curves were fitted with the 4 parameter logistic nonlinear regression model and the IC50 reported reflect the inflection point of the curve for curve fitting.
• Assay involving the TSI cocktail (T: TNF; S: Smac mimetic; I: IDN-6556): TSI treatment ensures that cells specifically undergo necroptotic cell death. TNF activates the TNF receptor, Smac mimetic directs the signal away from proinflammatory signaling and toward the RIPK1/RIPK3-mediated cell death pathways, and IDN-6556 (Caspase inhibitor) ensures that the apoptotic response is blocked leaving only the programmed necrosis response. The compounds' activity (solution in DMSO) tested in this TSI-induced assay was evaluated by determining the number of viable cells in culture by measuring the amount of ATP present as measured by CelltiterGlo.

The target in assay [5] is mouse MLKL (full length) (Mus musculus (Mouse), UniProt Q9D2Y4). Put plainly: KINOMEscan binding assay, mouse MLKL (full length). The note with it: equilibrium dissociation constant. The procedure:
Binding affinity of the test compounds for human MLKL (full length), mouse MLKL (full length), human RIPK1 and human RIPK3 was determined using the KINOMEscan™ technology developed by DiscoverX (USA; http://www.discoverx.com). The assay was conducted according to manufacturer instructions.
Kinase assays. For most assays, kinase-tagged T7 phage strains were grown in parallel in 24-well blocks in an E. coli host derived from the BL21 strain. E. coli were grown to log-phase and infected with T7 phage from a frozen stock (multiplicity of infection=0.4) and incubated with shaking at 32° C. until lysis (90-150 minutes). The lysates were centrifuged (6,000×g) and filtered (0.2 μm) to remove cell debris. The remaining kinases were produced in HEK-293 cells and subsequently tagged with DNA for qPCR detection. […] The liganded beads were blocked with excess biotin and washed with blocking buffer (SeaBlock (Pierce), 1% BSA, 0.05% Tween 20, 1 mM DTT) to remove unbound ligand and to reduce non-specific phage binding. […] All reactions were performed in polypropylene 384-well plates in a final volume of 20 μL. […] The kinase concentration in the eluates was measured by qPCR.
An 11-point 3-fold serial dilution of each test compound was prepared in 100% DMSO at 100× final test concentration and subsequently diluted to 1× in the assay (final DMSO concentration=1%). Most Kos were determined using a compound top concentration=30,000 nM.
KD for each test compound was calculated with a standard dose-response curve using the Hill equation (equation (1)): […]
The Hill Slope was set to −1.
Curves were fitted using a non-linear least square fit with the Levenberg-Marquardt algorithm.

Broadly, the Kd is the concentration at which binding is half-saturated. A higher Kd goes with weaker binding. A word on the IC50: it is the point on the concentration scale where inhibition reaches its midpoint.

Molecules are shown by their SMILES.

Chain of human RIPK1 (Q13546 whole entry): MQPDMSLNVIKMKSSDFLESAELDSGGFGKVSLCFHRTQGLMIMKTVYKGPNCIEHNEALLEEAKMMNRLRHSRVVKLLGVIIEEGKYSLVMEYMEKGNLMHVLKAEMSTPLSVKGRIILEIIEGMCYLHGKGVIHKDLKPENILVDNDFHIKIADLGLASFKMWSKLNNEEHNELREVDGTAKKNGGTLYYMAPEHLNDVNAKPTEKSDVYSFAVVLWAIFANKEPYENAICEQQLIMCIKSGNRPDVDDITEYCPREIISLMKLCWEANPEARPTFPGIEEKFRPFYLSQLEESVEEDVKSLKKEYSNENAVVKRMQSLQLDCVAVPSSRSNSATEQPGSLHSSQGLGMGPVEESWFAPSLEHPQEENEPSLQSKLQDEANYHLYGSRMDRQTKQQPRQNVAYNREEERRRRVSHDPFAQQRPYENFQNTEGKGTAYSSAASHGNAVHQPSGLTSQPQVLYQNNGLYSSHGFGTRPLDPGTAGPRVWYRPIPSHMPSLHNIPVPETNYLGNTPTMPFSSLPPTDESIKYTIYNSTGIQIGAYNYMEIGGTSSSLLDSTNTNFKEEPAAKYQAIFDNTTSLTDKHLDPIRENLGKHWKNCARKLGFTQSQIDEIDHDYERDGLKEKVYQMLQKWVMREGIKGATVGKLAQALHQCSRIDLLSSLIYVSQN
Chain of mouse MLKL (full length) (Q9D2Y4 whole entry): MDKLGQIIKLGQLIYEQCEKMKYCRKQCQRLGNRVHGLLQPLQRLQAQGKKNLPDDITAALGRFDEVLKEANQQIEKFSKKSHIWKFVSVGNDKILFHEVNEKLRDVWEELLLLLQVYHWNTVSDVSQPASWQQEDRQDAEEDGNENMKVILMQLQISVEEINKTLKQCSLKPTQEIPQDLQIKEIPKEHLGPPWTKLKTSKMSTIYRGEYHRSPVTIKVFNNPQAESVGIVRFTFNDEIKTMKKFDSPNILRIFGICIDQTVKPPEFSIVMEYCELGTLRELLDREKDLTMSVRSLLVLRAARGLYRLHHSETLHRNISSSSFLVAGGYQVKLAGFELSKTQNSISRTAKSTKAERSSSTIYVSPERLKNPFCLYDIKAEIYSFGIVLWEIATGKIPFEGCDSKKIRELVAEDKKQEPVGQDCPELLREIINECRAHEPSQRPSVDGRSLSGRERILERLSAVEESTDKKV
Chain of human RIPK3 (Q9Y572 whole entry): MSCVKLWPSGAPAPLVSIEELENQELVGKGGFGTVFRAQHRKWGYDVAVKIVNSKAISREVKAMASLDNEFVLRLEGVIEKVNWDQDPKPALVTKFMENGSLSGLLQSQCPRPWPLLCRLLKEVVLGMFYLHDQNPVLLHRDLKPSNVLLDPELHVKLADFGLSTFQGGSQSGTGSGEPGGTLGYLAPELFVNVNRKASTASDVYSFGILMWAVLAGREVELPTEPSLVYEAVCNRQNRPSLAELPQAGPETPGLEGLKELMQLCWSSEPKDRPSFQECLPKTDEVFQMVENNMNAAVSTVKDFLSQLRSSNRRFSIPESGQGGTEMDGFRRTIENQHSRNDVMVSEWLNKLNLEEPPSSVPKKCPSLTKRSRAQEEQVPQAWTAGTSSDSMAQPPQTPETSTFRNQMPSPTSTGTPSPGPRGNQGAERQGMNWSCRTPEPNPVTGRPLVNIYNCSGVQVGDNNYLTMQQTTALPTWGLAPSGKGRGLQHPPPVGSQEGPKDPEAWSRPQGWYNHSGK

In the case of `Nc1ncc(-c2cnn(C3CCOCC3)c2)c2occ(-c3ccc(NS(=O)(=O)CC(F)(F)F)c(OCc4ccc(F)cc4)c3)c12` [Compound 11, N-(4-(4-amino-7-(1-(tetrahydro-2H-pyran-4-yl)-1H-pyrazol-4-yl)furo[3,2-c]pyridin-3-yl)-2-((4-fluorobenzyl)oxy)phenyl)-2,2,2-trifluoroethane-1-sulfonamide], the Kd is greater than 10 µM in assay [1], 0.001 to 0.1 µM in assay [2], greater than 10 µM in assay [3] and 0.001 to 0.1 µM in assay [5]. Further, the IC50 in assay [4] fell in the range of 1 to 10 µM.

Source of the values: patent US20250059188A1, “ARYLSULPHONAMIDE COMPOUNDS” (Anaxis Pharma Pty Ltd, priority 2021, published 2025).
